Laboratory results published in patent publication US20210255184A1, “Biosensor Device and Methods” (The New Zealand Institute for Plant and Food Research …, priority 2018, published 2021).
pEC50: −log10 of the molar value.

Key:
Or35a/Orco = molecular target: T1, Or35a/Orco (Drosophila melanogaster, UniProt Q9V3Q2); test: EIS sensor, Or35a/Orco liposomes on gold electrode; format: biochemical
T1 construct: his-tag; made in house; host or cells: baculovirus-infected Sf9 cells
T1 sequence (Q9V3Q2 1-409): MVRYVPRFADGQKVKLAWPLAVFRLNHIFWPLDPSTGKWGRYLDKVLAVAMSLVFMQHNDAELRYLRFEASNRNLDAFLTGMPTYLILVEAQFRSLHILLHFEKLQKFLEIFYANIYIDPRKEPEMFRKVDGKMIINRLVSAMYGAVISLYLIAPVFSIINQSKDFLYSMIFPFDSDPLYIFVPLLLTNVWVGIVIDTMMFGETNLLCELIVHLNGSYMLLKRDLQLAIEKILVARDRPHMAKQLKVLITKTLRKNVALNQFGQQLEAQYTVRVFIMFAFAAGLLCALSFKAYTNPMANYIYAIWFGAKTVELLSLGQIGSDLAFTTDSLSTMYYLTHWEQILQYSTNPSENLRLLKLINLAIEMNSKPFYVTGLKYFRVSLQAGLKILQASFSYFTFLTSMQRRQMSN
T1 sequence (Q9VNB5 1-486 partner): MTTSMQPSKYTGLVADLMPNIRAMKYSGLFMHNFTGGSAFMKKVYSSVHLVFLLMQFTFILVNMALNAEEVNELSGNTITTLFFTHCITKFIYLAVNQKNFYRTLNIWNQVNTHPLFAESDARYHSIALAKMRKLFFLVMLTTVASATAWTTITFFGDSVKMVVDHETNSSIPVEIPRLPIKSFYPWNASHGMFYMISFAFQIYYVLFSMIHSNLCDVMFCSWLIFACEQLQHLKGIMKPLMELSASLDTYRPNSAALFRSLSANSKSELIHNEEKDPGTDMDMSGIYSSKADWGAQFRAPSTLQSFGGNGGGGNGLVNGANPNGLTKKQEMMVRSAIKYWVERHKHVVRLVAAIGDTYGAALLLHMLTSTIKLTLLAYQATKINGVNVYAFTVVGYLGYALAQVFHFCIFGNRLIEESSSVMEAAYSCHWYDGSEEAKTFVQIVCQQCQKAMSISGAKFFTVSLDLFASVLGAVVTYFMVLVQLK
Protocol: (§1) PBS (pH=7.4) was used as an electrolyte to conduct electrochemical measurements. PBS buffer was degassed for about 30 minutes prior to electrochemical measurements. Odorant solutions of concentration ranging from 1 aM to 1 μM were prepared by sequential dilution in PBS solution containing 1% DMSO. OR immobilized electrodes were incubated in relevant odorant solution for ˜30 minutes each and washed gently with PBS before EIS measurements.
EIS measurements were done in a 3 electrode cell containing Ag/AgCl (3 M NaCl, 0.209 V vs. SHE) reference electrode, coiled platinum wire as a counter electrode and the gold disk as a working electrode at a fixed voltage of −0.7 using PalmSens potentiostat. Degassed PBS was used as an electrolyte. […]
(§2) Prior to use, 1 mg liposomes (500 μl at 2 mg/ml) were defrosted on ice and then destabilized by incubating with 0.2% CHAPS for 15 min at room temperature. […] All Or35a/Orco integrated liposomes samples were analysed by Western blot before being aliquoted and stored at −80° C. Integration of Or35a/Orco into liposomes was assessed by density gradient ultracentrifugation (DGU) using Accudenz (Accurate Chemical & Scientific Corporation, USA). […]

[1] = EIS sensor, empty liposomes (specificity control); format: biochemical; conditions: empty liposomes without receptor
Protocol: PBS solution was prepared by immersing one tablet of PBS in 200 ml of milli-Q water (according to manufacturers instructions) and filtered using 0.2-μm syringe filter. The pH of the prepared buffer solution was measured with a pH meter. OrX liposomes or OrX/Orco liposomes were diluted 100 fold in PBS buffer solution (pH=7.4) and the COOH-activated electrodes were incubated in that buffer solution at room temperature for one hour. Then, the electrodes were washed extensively with PBS buffer solution to wash out any unbound liposomes.
as §1
(§3) EIS measurements were done in a 3 electrode cell containing Ag/AgCl (3 M NaCl, 0.209 V vs. SHE) reference electrode, coiled platinum wire as a counter electrode and the gold disk as a working electrode at a fixed voltage of −0.7 using PalmSens potentiostat. Degassed PBS was used as an electrolyte.
EIS measurements were performed on gold electrodes functionalised with OrX liposomes (either Or10a or Or22a), OrX/Orco liposomes, or empty liposomes prior to and after target ligand or control ligand incubation with increasing concentrations (1 aM to 100 μM). Dose response curves were obtained by defining sensor response as −(ΔRp/R^op) versus log[C(Ligand)]. FIG. 4a presents the EIS response in terms of Nyquist plot for the Or10a liposome functionalized sensors when exposed to a solution containing one of the known target ligands of Or10a, methyl salicylate, at various concentrations. […] The dose response curve (FIG. 4b) was obtained by plotting the change in polarization resistance −(ΔRp/R^op) versus log[conc(Ligand)], as the sensor response. […]

Or35a = molecular target: T2, Or35a (Drosophila melanogaster, UniProt Q9V3Q2); test: EIS sensor, Or35a liposomes on gold electrode; format: biochemical
T2 construct: his-tag; made in house; host or cells: baculovirus-infected Sf9 cells
T2 sequence (Q9V3Q2 1-409): T1 sequence (Q9V3Q2 1-409)
Protocol: as §1, §3
EIS measurements were performed on gold electrodes functionalised with OrX liposomes (either Or10a or Or22a), OrX/Orco liposomes, or empty liposomes prior to and after target ligand or control ligand incubation with increasing concentrations (1 aM to 100 μM). Dose response curves were obtained by defining sensor response as −(ΔRp/R^op) versus log[C(Ligand)]. FIG. 4a presents the EIS response in terms of Nyquist plot for the Or10a liposome functionalized sensors when exposed to a solution containing one of the known target ligands of Or10a, methyl salicylate, at various concentrations. […] The dose response curve (FIG. 4b) was obtained by plotting the change in polarization resistance −(ΔRp/R^op) versus log[conc(Ligand)], as the sensor response. Here, Rp is the polarization resistance after Or10a liposome-target interaction and R^op is the polarization resistance before Or10a liposome-target interaction.
as §2

AgOr48/Orco = conditions: cited from earlier work
PxOR1/Orco = conditions: ref 14; * estimated visually from graph; cited from earlier work
DiOR1/Orco = conditions: ref 48; * estimated visually from graph; cited from earlier work
MsiOR1/Orco = conditions: ref 48; * estimated visually from graph; cited from earlier work
ECB (Z) OR3/Orco = conditions: cited from earlier work
Or71a/Orco = molecular target: T3, Or71a/Orco (Drosophila melanogaster, UniProt Q9VUK5); test: Droplet interface bilayer ion channel recording, Or71a/Orco; format: biochemical; conditions: DIB, 10 μM ligand, holding potential 0 mV and −100 mV
T3 construct: his-tag; made in house; host or cells: baculovirus-infected Sf9 cells
T3 sequence (Q9VUK5 1-378): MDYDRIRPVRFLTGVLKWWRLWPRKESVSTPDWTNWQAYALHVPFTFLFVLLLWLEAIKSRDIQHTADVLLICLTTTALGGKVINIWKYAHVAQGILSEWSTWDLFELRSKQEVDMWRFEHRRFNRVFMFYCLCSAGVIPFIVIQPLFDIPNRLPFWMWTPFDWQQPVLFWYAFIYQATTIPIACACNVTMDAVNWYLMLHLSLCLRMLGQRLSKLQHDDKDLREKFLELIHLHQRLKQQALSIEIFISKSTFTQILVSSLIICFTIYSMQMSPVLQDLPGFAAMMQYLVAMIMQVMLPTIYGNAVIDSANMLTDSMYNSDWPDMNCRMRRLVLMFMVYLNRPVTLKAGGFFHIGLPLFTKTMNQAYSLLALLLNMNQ
T3 sequence (Q9VNB5 1-486 partner): T1 sequence (Q9VNB5 1-486 partner)
Protocol: Bilayers were formed between two droplets formed within a PMMA chamber filled with 1 mg/ml DPhPC in undecane and AR20 silicone oil (1:1 ratio). The first step in this process was to deposit a 50 nl droplet onto the stationary silver electrode positioned at the base of the well; this droplet consisted of an aqueous solution containing 300 mM NaCl, 10 mM HEPES (pH 7.4), containing the odorant receptor proteins in proteoliposomes (at a 1:20 dilution from the proteoliposome preparation), […] The second droplet was mounted onto a second silver electrode which was held in the oil and lipid mixture using a YOU-3 manipulator (Narishige, Japan). […] Once the droplets were in contact a bilayer formed spontaneously within 1 minute (as determined by visual assessment and an increase in the bilayer capacitance as measured with a capacitance voltage protocol using the Pico2 amplifier). Insertion of an active channel was determined by a change in current while clamping the voltage at 50 mV. […]
Currents were recorded with a Pico2 or an eONE-HS amplifier (Tecella, USA and Elements, Italy, respectively) with built-in digitizers, operating in gap-free acquisition mode at a sampling frequency of 20 kHz, and using a 0.8 or 1.5 kHz low pass filter. […]
Data were analysed using ANA (Dr Pusch, Genoa), EDR (Elements, Italy) and WinWCP (Dr Dempster, University of Strathclyde). […]

BmOR3/Orco = conditions: ref 14; * estimated visually from graph; cited from earlier work
BmOR1/Orco = conditions: ref 14; * estimated visually from graph; cited from earlier work
AgOr65/Orco = conditions: cited from earlier work
OscaOR1/Orco = conditions: ref 47; * estimated visually from graph; cited from earlier work
DOr85b/Orco = molecular target: T4, DOr85b/Orco (Drosophila melanogaster, UniProt Q9VHQ6); conditions: cited from earlier work
T4 construct: host or cells: Xenopus oocytes
T4 sequence (Q9VHQ6 1-389): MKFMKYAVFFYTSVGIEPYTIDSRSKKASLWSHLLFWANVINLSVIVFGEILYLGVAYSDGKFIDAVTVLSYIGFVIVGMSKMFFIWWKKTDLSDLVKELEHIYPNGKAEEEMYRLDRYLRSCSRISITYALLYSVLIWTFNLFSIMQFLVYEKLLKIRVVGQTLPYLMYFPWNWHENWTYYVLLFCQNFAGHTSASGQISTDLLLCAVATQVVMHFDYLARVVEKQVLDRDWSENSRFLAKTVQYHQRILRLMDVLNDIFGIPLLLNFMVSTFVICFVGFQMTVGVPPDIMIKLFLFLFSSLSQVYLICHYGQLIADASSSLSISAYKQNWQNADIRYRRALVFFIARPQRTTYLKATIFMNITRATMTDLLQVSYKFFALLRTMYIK
T4 sequence (Q9VNB5 1-486 partner): T1 sequence (Q9VNB5 1-486 partner)

[2] = EIS dose response, ligand 1 aM to 100 μM

CCC/C=C/C=O [E2-hexenal]
limit of detection (Or35a/Orco; [2]): 0.1 fM | Detection Range (Or35a/Orco; Table 3): 10^−16-10^−6 M | sensor response to ligand [1]: negligible responses | limit of detection (LOD) (Or35a; [2]): 10 fM | Detection Range (Or35a; Table 3): 10^−14 to 10^−6 M

CCCCCCCCC1CCC(=O)O1 (stereo not shown) [g-dodecalactone]
Ec50 (given as Log) (AgOr48/Orco; log value): Log = −7.01 | Sensitivity limit (given as Log) (AgOr48/Orco; ref 45, * estimated visually from graph): Log = −8*

CCCC/C=C\CCCCCCCCCC=O [Z11-16:Ald]
Sensitivity limit (PxOR1/Orco): 10^−8-10^−6 M*

CCCC/C=C/CCCCCCCCCC=O [Ell-16:Ald]
Sensitivity limit (DiOR1/Orco): 10^−7 M*

CCCC/C=C\CCCCCCCCCCOC(C)=O [Z11-16:Ac]
Sensitivity limit (MsiOR1/Orco): 10^−7 M*

CC/C=C/CCCCCCCCCCOC(C)=O [E11 pheromone]
Sensitivity limit (ECB (Z) OR3/Orco): 10^−9 M

CCc1ccc(OC)c(O)c1 [4-ethyl guaiacol]
ion channel activity (Or71a/Orco): active ligand gated ion channel

CCC/C=C\C=C\CCCCCCCCC=O [Bonnbykal]
Sensitivity limit (BmOR3/Orco): 10^−8-10^−6 M*

CCC/C=C\C=C\CCCCCCCCCO [Bonnbykol]
Sensitivity limit (BmOR1/Orco): 10^−8-10^−6 M*

C=CCc1ccc(O)c(OC)c1 [eugenol]
Ec50 (given as Log) (AgOr65/Orco; log value): Log = −6.54 | Sensitivity limit (given as Log) (AgOr65/Orco; ref 43, * estimated visually from graph): Log = −7*

CC/C=C/CCCCCCCCCCO [E11-14:OH]
Sensitivity limit (OscaOR1/Orco): 10^−7 M*

CCCCCC(C)=O [2-heptanone]
pEC50 (DOr85b/Orco): 4.34 | Sensitivity limit (DOr85b/Orco; ref 14, * estimated visually from graph): 10^−8-10^−6 M*
